Measured values taken from the supplement of paper PMC10307832.

What was measured:
Assay in all cases: relative viability (nuclei count vs DMSO), 5 days (fraction); higher = more cells survive
JZL-184 + Navitoclax = compound: C1CN(CCC1C(C2=CC3=C(C=C2)OCO3)(C4=CC5=C(C=C4)OCO5)O)C(=O)OC6=CC=C(C=C6)[N+](=O)[O-] [JZL-184] + CC1(C)CCC(c2ccc(Cl)cc2)=C(CN2CCN(c3ccc(C(=O)NS(=O)(=O)c4ccc(N[C@H](CCN5CCOCC5)CSc5ccccc5)c(S(=O)(=O)C(F)(F)F)c4)cc3)CC2)C1 [Navitoclax] (partner 0.5 µM)
Procedure, shortened: (§1)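 Five library-drug doses in √10 steps were combined with a fixed anchor-drug dose, or a single drug was given alone, by pin tool to lung cancer cell lines in 1536-well plates the day after seeding. Nuclei were stained and counted after 5 days. Relative viability is the nuclei count in treated wells over that in vehicle wells, taken as the median of duplicate plates.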

JZL-184 + Pictilisib = compound: C1CN(CCC1C(C2=CC3=C(C=C2)OCO3)(C4=CC5=C(C=C4)OCO5)O)C(=O)OC6=CC=C(C=C6)[N+](=O)[O-] [JZL-184] + CS(=O)(=O)N1CCN(Cc2cc3nc(-c4cccc5[nH]ncc45)nc(N4CCOCC4)c3s2)CC1 [Pictilisib] (partner 1 µM)
Procedure, shortened: as §1

JZL-184 + Decitabine = compound: C1CN(CCC1C(C2=CC3=C(C=C2)OCO3)(C4=CC5=C(C=C4)OCO5)O)C(=O)OC6=CC=C(C=C6)[N+](=O)[O-] [JZL-184] + Nc1ncn([C@H]2C[C@H](O)[C@@H](CO)O2)c(=O)n1 [Decitabine] (partner 2 µM)
Procedure, shortened: as §1

JZL-184 + OSI-027 = compound: C1CN(CCC1C(C2=CC3=C(C=C2)OCO3)(C4=CC5=C(C=C4)OCO5)O)C(=O)OC6=CC=C(C=C6)[N+](=O)[O-] [JZL-184] + COc1cccc2cc(-c3nc([C@H]4CC[C@H](C(=O)O)CC4)n4ncnc(N)c34)[nH]c12 [OSI-027] (partner 0.5 µM)
Procedure, shortened: as §1

JZL-184 = compound: C1CN(CCC1C(C2=CC3=C(C=C2)OCO3)(C4=CC5=C(C=C4)OCO5)O)C(=O)OC6=CC=C(C=C6)[N+](=O)[O-] [JZL-184]
Procedure, shortened: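 A plate was accepted only when its control CV was below 25% and the cells had doubled at least once. Viability is defined from nuclear counts as treated wells divided by vehicle wells, with the median taken across plates. That median covers lung cancer cell lines grown in 1536-well plates, dosed by pinning at five √10-spaced library-drug concentrations, and counted in MetaXpress from 4× Hoechst images after 5 days.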

Cell Line | relative viability (JZL-184 + Navitoclax; first compound 0.04 µM) | relative viability (JZL-184 + Navitoclax; first compound 0.4 µM) | relative viability (JZL-184 + Navitoclax; first compound 1.265 µM) | relative viability (JZL-184 + Navitoclax; first compound 4 µM) | relative viability (JZL-184 + Pictilisib; first compound 0.04 µM) | relative viability (JZL-184 + Pictilisib; first compound 0.4 µM) | relative viability (JZL-184 + Pictilisib; first compound 1.265 µM) | relative viability (JZL-184 + Pictilisib; first compound 4 µM) | relative viability (JZL-184 + Decitabine; first compound 0.04 µM) | relative viability (JZL-184 + Decitabine; first compound 0.4 µM) | relative viability (JZL-184 + Decitabine; first compound 1.265 µM) | relative viability (JZL-184 + Decitabine; first compound 4 µM) | relative viability (JZL-184 + OSI-027; first compound 0.04 µM) | relative viability (JZL-184 + OSI-027; first compound 0.4 µM) | relative viability (JZL-184 + OSI-027; first compound 1.265 µM) | relative viability (JZL-184 + OSI-027; first compound 4 µM) | relative viability (JZL-184; 0.04 µM) | relative viability (JZL-184; 0.4 µM) | relative viability (JZL-184; 1.265 µM) | relative viability (JZL-184; 4 µM)
201T | 1.23 | 1.19 | 1.17 | 1.18 | 0.743 | 0.67 | 0.727 | 0.649 | 0.83 | 0.84 | 0.841 | 0.845 | 0.754 | 0.685 | 0.744 | 0.701 | 0.997 | 0.992 | 1.01 | 0.953
A-427 | 1.02 | 0.879 | 0.962 | 0.992 | 0.797 | 0.639 | 0.852 | 0.697 | 0.617 | 0.585 | 0.599 | 0.537 | 0.469 | 0.435 | 0.479 | 0.474 | 1.09 | 0.982 | 1.12 | 0.948
ABC-1 | – | – | – | – | 0.946 | 0.71 | 0.898 | 0.625 | 1.59 | 1.07 | 1.03 | 1.22 | 0.644 | 0.441 | 0.667 | 0.448 | 0.868 | 0.901 | 1.09 | 1.15
BEN | 0.0556 | 0.0635 | 0.0659 | 0.0756 | 0.661 | 0.515 | 0.637 | 0.54 | 0.742 | 0.537 | 0.78 | 0.767 | 0.289 | 0.254 | 0.324 | 0.296 | 1.1 | 0.949 | 1.21 | 1.01
CAL-12T | 1.33 | 1.1 | 1.15 | 1.15 | 0.415 | 0.263 | 0.686 | 0.422 | – | – | – | – | 0.897 | 0.648 | 0.673 | 0.614 | 1.23 | 0.856 | 1.13 | 0.949
COR-L23 | 1.13 | 0.87 | 1.05 | 0.968 | 0.945 | 0.775 | 0.842 | 0.757 | 0.474 | 0.414 | 0.412 | 0.397 | 0.964 | 0.783 | 0.806 | 0.64 | 1.2 | 1.06 | 1.03 | 0.971
COR-L 105 | 0.878 | 0.813 | 0.905 | 0.585 | 0.448 | 0.41 | 0.368 | 0.37 | 0.686 | 0.648 | 0.613 | 0.611 | 0.908 | 0.731 | 0.744 | 0.703 | 1.13 | 0.876 | 1.1 | 0.812
ChaGo-K-1 | 1.47 | 0.896 | 1.29 | 0.962 | 1.03 | 0.585 | 1.04 | 0.741 | 0.505 | 0.498 | 0.514 | 0.526 | 0.637 | 0.63 | 0.635 | 0.555 | 1.12 | 0.934 | 1.03 | 0.957
EKVX | 1 | 0.946 | 0.922 | 0.895 | 0.501 | 0.407 | 0.446 | 0.432 | 0.354 | 0.412 | 0.396 | 0.363 | 0.752 | 0.536 | 0.669 | 0.704 | 1.02 | 0.979 | 1.04 | 0.927
EMC-BAC-2 | 1.22 | 1.12 | 1.17 | 1.11 | 0.59 | 0.559 | 0.565 | 0.488 | 1.02 | 0.946 | 0.958 | 0.944 | 0.368 | 0.375 | 0.396 | 0.343 | 1.05 | 0.944 | 1.12 | 0.922
EPLC-272H | 1.12 | 1.11 | 1.2 | 1.25 | 0.317 | 0.271 | 0.38 | 0.314 | 0.356 | 0.386 | 0.396 | 0.384 | 0.311 | 0.259 | 0.35 | 0.351 | 1 | 0.914 | 1.15 | 0.937
H3255 | 0.589 | 0.492 | 0.678 | 0.522 | 0.524 | 0.454 | 0.526 | 0.49 | 0.648 | 0.63 | 0.59 | 0.646 | 0.563 | 0.52 | 0.557 | 0.589 | 1.1 | 0.871 | 1.07 | 0.885
HARA | 1.19 | 1.06 | 1.15 | 1.14 | 0.356 | 0.363 | 0.424 | 0.577 | 0.621 | – | 0.561 | 0.468 | 0.547 | 0.444 | 0.614 | 0.456 | 0.995 | 0.814 | 1.05 | 0.831
HCC-15 | 0.754 | 0.704 | 0.759 | 0.703 | 0.957 | 0.664 | 0.814 | 0.697 | 0.625 | 0.692 | 0.647 | 0.575 | 0.727 | 0.635 | 0.742 | 0.677 | 1.07 | 1.03 | 1.08 | 0.978
HCC-44 | 1.02 | 0.953 | 0.954 | 0.876 | 0.592 | 0.549 | 0.622 | 0.528 | 1.05 | 0.942 | 0.964 | 0.99 | 0.628 | 0.366 | 0.689 | 0.471 | 1.05 | 0.923 | 1.06 | 0.983
HCC-78 | 0.709 | 0.75 | 0.724 | 0.551 | 0.204 | 0.188 | 0.248 | 0.2 | 0.77 | – | 0.793 | 0.646 | 0.348 | 0.326 | 0.379 | 0.382 | 0.793 | 0.806 | 1.13 | 1.01
HCC-366 | 1.21 | 1.03 | 1.07 | 1.06 | 0.158 | 0.179 | 0.155 | 0.113 | 0.348 | 0.357 | 0.336 | 0.314 | 1.04 | 0.868 | 0.97 | 0.825 | 1.09 | 0.958 | 1.06 | 1.02
HCC-827 | 1.04 | 1.01 | 1.02 | 0.981 | 0.915 | 0.908 | 1.01 | 1.06 | 0.297 | 0.191 | 0.306 | 0.312 | 0.954 | 0.769 | 0.798 | 0.707 | 1.02 | 0.989 | 1.02 | 1.04
HOP-62 | 1.13 | 0.739 | 1.07 | 1.1 | 0.69 | 0.822 | 0.901 | 0.94 | 0.249 | 0.197 | 0.233 | 0.214 | 0.981 | 0.805 | 0.826 | 0.866 | 1.08 | 1.01 | 1.04 | 1.01
IA-LM | 0.983 | 0.711 | 0.78 | 0.794 | 0.456 | 0.361 | 0.376 | 0.312 | – | – | – | – | – | – | – | – | 1.31 | 0.879 | 1.03 | 1
LC-2-ad | 0.467 | 0.248 | 0.491 | 0.369 | 0.546 | 0.388 | 0.658 | 0.461 | 0.687 | 0.718 | 0.887 | 0.787 | 0.92 | 0.926 | 0.907 | 0.734 | 1.18 | 0.96 | 1.13 | 0.982
LCLC-103H | – | – | – | – | 0.574 | 0.49 | 0.654 | 0.615 | 0.768 | 0.817 | 0.815 | 0.778 | 0.525 | 0.528 | 0.428 | 0.455 | 0.956 | 0.988 | 1.04 | 0.986
NCI-H358 | – | – | – | – | 0.353 | 0.399 | 0.319 | 0.444 | 0.241 | 0.211 | 0.237 | 0.21 | 0.826 | 0.716 | 0.79 | 0.712 | 1 | 0.824 | 0.994 | 0.916
NCI-H522 | – | – | – | – | – | – | – | – | 0.689 | 0.615 | 0.685 | 0.611 | 0.906 | 0.748 | 0.748 | 0.748 | 1.24 | 0.896 | 1.05 | 0.901
NCI-H650 | – | – | – | – | 1.08 | 0.857 | 0.884 | 0.876 | 0.308 | 0.319 | 0.317 | 0.306 | 0.603 | 0.525 | 0.576 | 0.542 | 1.03 | 0.762 | 1.1 | 0.979
NCI-H661 | – | – | – | – | 0.372 | – | 0.455 | 0.452 | 0.624 | 0.526 | 0.518 | 0.537 | 0.806 | 0.638 | 0.761 | 0.53 | 1.02 | 0.919 | 0.943 | 0.999
NCI-H1703 | 1.6 | 0.852 | 1.54 | 1.4 | 0.265 | 0.216 | 0.288 | 0.246 | – | – | – | – | – | – | – | – | 1.2 | 0.997 | 0.996 | 0.768
NCI-H2228 | 0.841 | 0.823 | 0.836 | 0.91 | 0.235 | 0.311 | 0.309 | 0.518 | – | – | – | – | 0.643 | 0.51 | 0.613 | 0.632 | 1.16 | 0.945 | 1.04 | 0.918
NCI-H2342 | – | – | – | – | – | – | – | – | 0.736 | 0.691 | 0.716 | 0.817 | 0.614 | 0.548 | 0.617 | 0.704 | 0.851 | 0.878 | 1.03 | 1.02
SW 900 | – | – | – | – | – | – | – | – | 0.465 | 0.416 | 0.465 | 0.451 | 0.596 | 0.536 | 0.566 | 0.5 | 1.08 | 0.698 | 0.958 | 0.882
